Reference: patent publication US12617779B2, “Self degradation-type CDK9 inhibitor prodrug and liposome encapsulating same” (Sumitomo Pharma Co., Ltd., priority 2021, dated 2026)

Columns and labels:
[1] = Evaluation of conversion rate to active form in buffer solution (Experimental Example 1); type: physicochemical
Summary of the method: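 Conversion to Alvocidib was followed by HPLC over 3 hours at 37° C, with test compounds at 25 umol/L in 50 mM citrate or phosphate buffers spanning pH 5.0–7.4.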

[2] = Evaluation of conversion rate to active form in human plasma (Experimental Example 3); type: in vitro ADME; conditions: human, 0.2 μmol/L
Summary of the method: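 Test compound at 0.2 μmol/L was incubated at 37° C in human or BALB/c mouse plasma and sampled at 0, 30 and 60 min or at 0, 60 and 120 min. Compound and Alvocidib were quantified by LC-MS/MS peak area. Attrition is relative to 0 min; conversion is relative to 0.2 μmol/L Alvocidib reference.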

C[C@H](N)C(=O)O[C@@H]1CN(C)CC[C@@H]1c1c(O)cc(O)c2c(=O)cc(-c3ccccc3Cl)oc12 [Comparative Example 7, reference compound]
Production rate of Alvocidib ([1]; pH5.0, 0 hr): 2.8%
Residual rate ([1]; pH5.0, 0 hr): 96.8%
Stability in buffer solution at pH 5 ([1]; pH 5, 37° C., up to 2 or 3 hours): unstable
Production rate of Alvocidib ([1]; pH5.0, 0.5 hr): 5.7%
Residual rate ([1]; pH5.0, 0.5 hr): 93.9%
Production rate of Alvocidib ([1]; pH5.0, 1 hr): 9.7%
Residual rate ([1]; pH5.0, 1 hr): 90.1%
Production rate of Alvocidib ([1]; pH5.0, 2 hr): 15.7%
Residual rate ([1]; pH5.0, 2 hr): 83.8%
Production rate of Alvocidib ([1]; pH5.0, 3 hr): 21.9%
Residual rate ([1]; pH5.0, 3 hr): 77.6%
Production rate of Alvocidib ([1]; pH5.5, 0 hr): 2.7%
Residual rate ([1]; pH5.5, 0 hr): 97.0%
Production rate of Alvocidib ([1]; pH5.5, 0.5 hr): 7.9%
Residual rate ([1]; pH5.5, 0.5 hr): 91.9%
Production rate of Alvocidib ([1]; pH5.5, 1 hr): 14.3%
Residual rate ([1]; pH5.5, 1 hr): 85.4%
Production rate of Alvocidib ([1]; pH5.5, 2 hr): 23.8%
Residual rate ([1]; pH5.5, 2 hr): 75.9%
Production rate of Alvocidib ([1]; pH5.5, 3 hr): 33.1%
Residual rate ([1]; pH5.5, 3 hr): 66.6%
Production rate of Alvocidib ([1]; pH6.0, 0 hr): 3.4%
Residual rate ([1]; pH6.0, 0 hr): 96.4%
Production rate of Alvocidib ([1]; pH6.0, 0.5 hr): 26.1%
Residual rate ([1]; pH6.0, 0.5 hr): 73.9%
Production rate of Alvocidib ([1]; pH6.0, 1 hr): 48.3%
Residual rate ([1]; pH6.0, 1 hr): 51.7%
Production rate of Alvocidib ([1]; pH6.0, 2 hr): 70.9%
Residual rate ([1]; pH6.0, 2 hr): 28.9%
Production rate of Alvocidib ([1]; pH6.0, 3 hr): 84.8%
Residual rate ([1]; pH6.0, 3 hr): 15.2%
Production rate of Alvocidib ([1]; pH6.5, 0 hr): 3.9%
Residual rate ([1]; pH6.5, 0 hr): 96.0%
Production rate of Alvocidib ([1]; pH6.5, 0.5 hr): 34.7%
Residual rate ([1]; pH6.5, 0.5 hr): 65.3%
Production rate of Alvocidib ([1]; pH6.5, 1 hr): 61.2%
Residual rate ([1]; pH6.5, 1 hr): 38.8%
Production rate of Alvocidib ([1]; pH6.5, 2 hr): 83.2%
Residual rate ([1]; pH6.5, 2 hr): 16.8%
Production rate of Alvocidib ([1]; pH6.5, 3 hr): 93.4%
Residual rate ([1]; pH6.5, 3 hr): 6.6%
Production rate of Alvocidib ([1]; pH7.0, 0 hr): 4.1%
Residual rate ([1]; pH7.0, 0 hr): 95.9%
Production rate of Alvocidib ([1]; pH7.0, 0.5 hr): 37.3%
Residual rate ([1]; pH7.0, 0.5 hr): 62.6%
Production rate of Alvocidib ([1]; pH7.0, 1 hr): 64.3%
Residual rate ([1]; pH7.0, 1 hr): 35.5%
Production rate of Alvocidib ([1]; pH7.0, 2 hr): 85.8%
Residual rate ([1]; pH7.0, 2 hr): 14.2%
Production rate of Alvocidib ([1]; pH7.0, 3 hr): 94.9%
Residual rate ([1]; pH7.0, 3 hr): 5.1%
Production rate of Alvocidib ([1]; pH7.4, 0 hr): 4.2%
Residual rate ([1]; pH7.4, 0 hr): 95.3%
Production rate of Alvocidib ([1]; pH7.4, 0.5 hr): 36.7%
Residual rate ([1]; pH7.4, 0.5 hr): 63.0%
Production rate of Alvocidib ([1]; pH7.4, 1 hr): 63.5%
Residual rate ([1]; pH7.4, 1 hr): 36.3%
Production rate of Alvocidib ([1]; pH7.4, 2 hr): 84.7%
Residual rate ([1]; pH7.4, 2 hr): 15.3%
Production rate of Alvocidib ([1]; pH7.4, 3 hr): 94.4%
Residual rate ([1]; pH7.4, 3 hr): 5.6%
Production rate (%) of Alvocidib ([2]; 0 min): 6%
Residual rate (%) of test compound ([2]; 0 min): 100%
Production rate (%) of Alvocidib ([2]; 60 min): 26%
Residual rate (%) of test compound ([2]; 60 min): 77%
Production rate (%) of Alvocidib ([2]; 120 min): 32%
Residual rate (%) of test compound ([2]; 120 min): 65%
